This is an account of results in patent publication US12629374B2, “Antimalarial agents” (Merck Sharp & Dohme LLC, priority 2020, dated 2026).

The subject of one test is ring stage parasites. Kind of test: Parasite growth potency assay, 72 hours, LDH readout. The format is cell-based. To be noted: 72 h, parasite growth measured by LDH assay after 72 hours at 37° C.; 0.7% rings, 2% haematocrit; read-out: EC50. The essentials:
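Parasite growth was quantified by LDH assay after a −80 °C freeze-thaw. Before that, compound was incubated for 72 h at 37 °C under humidified gas with ring-stage cultures adjusted to 0.7% parasitemia and 2% haematocrit in serum- and albumax-supplemented RPMI-Hepes.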
As for `CCC1(CC)CC(=O)N([C@H](CCN2CCCC2)c2cccc(C(=O)N[C@H]3CCOc4ccccc43)c2)C(=N)N1` [Example 58, [1-[1-[3-[[(4S)-chroman-4-yl]carbamoyl]phenyl]-3-pyrrolidin-1-ium-1-yl-propyl]-4,4-diethyl-6-oxo-hexahydropyrimidin-2-ylidene]ammonium; 2,2,2-trifluoroacetate], the EC50 (as a rule, the concentration giving half of the maximal effect) is 1.3 nM.

For the molecule `C#CCCC(c1cccc(C(=O)N[C@@H]2c3ccccc3C[C@H]2O)c1)N1C(=N)NC(CC)(CC)CC1=O` (stereo in doubt) [Example 221, 3-[(1S)-1-(4,4-diethyl-2-imino-6-oxo-hexahydropyrimidin-1-yl)pent-4-ynyl]-N-[(1R,2R)-2-hydroxyindan-1-yl]benzamide], the EC50 came out at 35.4 nM.

Turning to `N=C1N[C@@](CC2CC2)(c2ccccc2)CC(=O)N1[C@H](c1cccnc1)c1cccc(C(=O)N[C@H]2CCOc3ccccc32)c1` [Example 8, [(4R)-1-[[3-[[(4S)-chroman-4-yl]carbamoyl]phenyl]-pyridin-1-ium-3-yl-methyl]-4-(cyclopropylmethyl)-6-oxo-4-phenyl-hexahydropyrimidin-2-ylidene]ammonium; 2,2,2-trifluoroacetate], the EC50 turned out to be 4.2 nM.

Consider `CC(C)[C@]1(C)CC(=O)N([C@H](c2ccccc2)c2cccc(C(=O)N[C@@H]3CCOc4ccccc43)c2)C(=N)N1` [Example 9B, [(4S)-1-[(R)-[3-[[(4R)-chroman-4-yl]carbamoyl]phenyl]-phenyl-methyl]-4-isopropyl-4-methyl-6-oxo-hexahydropyrimidin-2-ylidene]ammonium; 2,2,2-trifluoroacetate], for which the EC50 came out at 19.2 nM.

Turning to `CCC1(CC)CC(=O)N([C@@H](c2cncc(F)c2)c2cccc(C(=O)N[C@H]3CCOc4ccccc43)c2)C(=N)N1` [Example 106B, [1-[[3-[[(4S)-chroman-4-yl]carbamoyl]phenyl]-(5-fluoropyridin-1-ium-3-yl)methyl]-4,4-diethyl-6-oxo-hexahydropyrimidin-2-ylidene]ammonium; 2,2,2-trifluoroacetate], the EC50 is 3.1 nM.

In the case of `CCC1(CC)CC(=O)N(Cc2cccc(C(=O)N[C@@H]3c4ccccc4C[C@H]3O)n2)C(=N)N1` [Example 37, [4,4-diethyl-1-[[6-[[(1R,2R)-2-hydroxyindan-1-yl]carbamoyl]-2-pyridyl]methyl]-6-oxo-hexahydropyrimidin-2-ylidene]ammonium; 2,2,2-trifluoroacetate], the EC50 is 14.4 nM.

Consider `CCC1(CC)CC(=O)N([C@H](COCCOC)c2cccc(C(=O)N[C@H]3CC(C)(C)Oc4ccccc43)c2)C(=N)N1` [Example 112A, [1-[1-[3-[[(4S)-2,2-dimethylchroman-4-6-oxo-hexahydropyrimidin-2-ylidene]ammonium; 2,2,2-trifluoroacetate], for which the concentration giving a half-maximal response (EC50) is 0.3 nM.

Turning to `CCC1(CC)CC(=O)N([C@@H](c2cccc(C(=O)N[C@@H]3c4ccccc4C[C@H]3O)c2)c2cccc(S(C)(=O)=O)c2)C(=N)N1` [Example 124A, [4,4-diethyl-1-[[3-[[(1R,2R)-2-hydroxyindan-1-yl]carbamoyl]phenyl]-(3-methylsulfonylphenyl)methyl]-6-oxo-hexahydropyrimidin-2-ylidene]ammonium; 2,2,2-trifluoroacetate], the concentration giving a half-maximal response (EC50) turned out to be 9.9 nM.

Turning to `CCC1(CC)CC(=O)N([C@H](CCOC)c2cccc(C(=O)N[C@@H]3c4cc(F)ccc4OC(C)(C)[C@H]3O)c2)C(=N)N1` [Example 165B, [4,4-diethyl-1-[(1R)-1-[3-[[(3S,4R)-6-fluoro-3-hydroxy-2,2-dimethyl-chroman-4-yl]carbamoyl]phenyl]-3-methoxy-propyl]-6-oxo-hexahydropyrimidin-2-ylidene]ammonium; 2,2,2-trifluoroacetate], the EC50 was determined as 0.4 nM.

As to `CCC1(CC)CC(=O)N([C@H](CCOC)c2cccc(C(=O)NC3c4ccccc4CC3(C)O)c2)C(=N)N1` (single isomer, unassigned) [Example 142B, 3-[1-(4,4-diethyl-2-imino-6-oxo-hexahydropyrimidin-1-yl)-3-methoxy-propyl]-N-(2-hydroxy-2-methyl-indan-1-yl)benzamide], the EC50 came to 1.4 nM.

Regarding `CCC[C@H](c1cccc(C(=O)N[C@@H]2c3ccccc3C[C@H]2O)c1)N1C(=N)N[C@@](CC2CC2)(c2ccccc2)CC1=O` [Example 65, [(4R)-4-(cyclopropylmethyl)-1-[(1R)-1-[3-[[(1R,2R)-2-hydroxyindan-1-yl]carbamoyl]phenyl]butyl]-6-oxo-4-phenyl-hexahydropyrimidin-2-ylidene]ammonium; 2,2,2-trifluoroacetate], the EC50 was 43.9 nM.

For `CC(C)[C@]1(C)CC(=O)N([C@@H](c2cccnc2)c2cccc(C(=O)N[C@H]3CC(C)(C)Oc4ccccc43)c2)C(=N)N1` [Example 101B, [(4S)-1-[[3-[[(4S)-2,2-dimethylchroman-4-yl]carbamoyl]phenyl]-pyridin-1-ium-3-yl-methyl]-4-isopropyl-4-methyl-6-oxo-hexahydropyrimidin-2-ylidene]ammonium; 2,2,2-trifluoroacetate], the EC50 came out at 1.5 nM.

On to `C#CCC[C@@H](c1cccc(C(=O)N[C@H]2CC(C)(C)Oc3ccccc32)c1)N1C(=N)N[C@](C)(C(C)C)CC1=O` [Example 108B, [(4S)-1-[1-[3-[[(4S)-2,2-dimethylchroman-4-yl]carbamoyl]phenyl]pent-4-ynyl]-4-isopropyl-4-methyl-6-oxo-hexahydropyrimidin-2-ylidene]ammonium; 2,2,2-trifluoroacetate], for which the EC50 amounted to 23.6 nM.

Consider `CCC1(CC)CC(=O)N([C@H](CCOCCOCCOCCN=[N+]=[N-])c2cccc(C(=O)N[C@H]3CC(C)(C)Oc4ccccc43)c2)C(=N)N1` [Example 201, [1-[(1R)-3-[2-[2-(2-azidoethoxy)ethoxy]ethoxy]-1-[3-[[(4S)-2,2-dimethylchroman-4-yl]carbamoyl]phenyl]propyl]-4,4-diethyl-6-oxo-hexahydropyrimidin-2-ylidene]ammonium; 2,2,2-trifluoroacetate], for which the EC50 turned out to be 1.2 nM.

As to `CCC1(CC)NC(=N)N(Cc2cc(F)cc(C(=O)N[C@@H]3c4ccccc4C[C@H]3O)c2)C(=O)C1C` (stereo partly drawn) [Example 48, [4,4-diethyl-1-[[3-fluoro-5-[[(1R,2R)-2-hydroxyindan-1-yl]carbamoyl]phenyl]methyl]-5-methyl-6-oxo-hexahydropyrimidin-2-ylidene]ammonium; 2,2,2-trifluoroacetate], the EC50 amounted to 5.2 nM.

Regarding `CC(C)[C@]1(C)CC(=O)N([C@H](C)c2cccc(C(=O)N[C@H]3CCOc4ccccc43)c2)C(=N)N1` [Example 25, [(4S)-1-[1-[3-[[(4S)-chroman-4-yl]carbamoyl]phenyl]ethyl]-4-isopropyl-4-methyl-6-oxo-hexahydropyrimidin-2-ylidene]ammonium; 2,2,2-trifluoroacetate], the EC50 came to 4.4 nM.

For the molecule `CCC1(CC)CC(=O)N([C@H](CCOC(F)F)c2cccc(C(=O)N[C@@H]3c4ccccc4C[C@H]3O)c2)C(=N)N1` [Example 157, [1-[3-(difluoromethoxy)-1-[3-[[(1R,2R)-2-hydroxyindan-1-yl]carbamoyl]phenyl]propyl]-4,4-diethyl-6-oxo-hexahydropyrimidin-2-ylidene]ammonium; 2,2,2-trifluoroacetate], the half-maximal effective concentration (EC50) stood at 1.8 nM.

Take `C[C@H](c1cccc(C(=O)NC2c3ccccc3OC(C)(C)C2(C)O)c1)N1C(=N)NC(C)(C)CC1=O` (stereo partly drawn) [Example 222, N-(3-hydroxy-2,2,3-trimethyl-chroman-4-yl)-3-[(1R)-1-(2-imino-4,4-dimethyl-6-oxo-hexahydropyrimidin-1-yl)ethyl]benzamide]: the EC50 is 2.28 nM.

Regarding `CCC1(CC)CC(=O)N([C@H](CCN2CCOCC2)c2cccc(C(=O)N[C@H]3CCOc4ccccc43)c2)C(=N)N1` [Example 54, [1-[1-[3-[[(4S)-chroman-4-yl]carbamoyl]phenyl]-3-morpholin-4-ium-4-yl-propyl]-4,4-diethyl-6-oxo-hexahydropyrimidin-2-ylidene]ammonium; 2,2,2-trifluoroacetate], the EC50 stood at 5.6 nM.

As for `CCC1(C)CC(=O)N([C@H](CCOC)c2cccc(C(=O)N[C@@H]3c4ccccc4C4(CC4)[C@H]3O)c2)C(=N)N1` (stereo partly drawn) [Example 168, [4-ethyl-1-[(1R)-1-[3-[(2′-hydroxyspiro[cyclopropane-1,3′-indane]-1′-yl)carbamoyl]phenyl]-3-methoxy-propyl]-4-methyl-6-oxo-hexahydropyrimidin-2-ylidene]ammonium; 2,2,2-trifluoroacetate], the concentration giving a half-maximal response (EC50) is 1.4 nM.

As for `CCC1(CC)CC(=O)N([C@H](c2cncnc2)c2cccc(C(=O)N[C@H]3CC(C)(C)Oc4ccccc43)c2)C(=N)N1` (stereo in doubt) [Example 92B, 3-[(4,4-diethyl-2-imino-6-oxo-hexahydropyrimidin-1-yl)-pyrimidin-5-yl-methyl]-N-(2,2-dimethylchroman-4-yl)benzamide], the EC50 turned out to be 0.9 nM.

With `C#CCCC[C@H](c1cccc(C(=O)N[C@H]2CCOc3ccccc32)c1)N1C(=N)NC(CC)(CC)CC1=O` [Example 210A, [1-[1-[3-[[(4S)-chroman-4-yl]carbamoyl]phenyl]hex-5-ynyl]-4,4-diethyl-6-oxo-hexahydropyrimidin-2-ylidene]ammonium; 2,2,2-trifluoroacetate], the EC50 was determined as 0.7 nM.

Staying with this test, now noted: parasite growth measured by LDH assay after 72 hours at 37° C.; 0.7% rings, 2% haematocrit; read-out: EC50.
`CCC1(CC)CC(=O)N(C(CC(O)C(F)(F)F)c2cccc(C(=O)N[C@@H]3c4ccccc4C[C@H]3O)c2)C(=N)N1` (single isomer, unassigned) [Example 236C]: the EC50 worked out at 2.3 nM.

Turning to `CC[C@]1(C)CC(=O)N(C(CCOC(F)F)c2cccc(C(=O)NC3c4ccccc4OC(C)(C)C3(C)O)c2)C(=N)N1` (single isomer, unassigned) [Example 240B], the EC50 was 0.25 nM.

With `CCC12CCCCCCC3COc4ccccc4C3NC(=O)c3cccc(c3)CN(C(=N)N1)C(=O)C2` (single isomer, unassigned) [Example 120C, (26-ethyl-8,29-dioxo-17-oxa-1,9,27-triazapentacyclo[24.2.2.13,7.010,19. 011,16]hentriaconta-3,5,7(31),11(16),12,14-hexaen-28-ylidene)ammonium; 2,2,2-trifluoroacetate], the concentration giving a half-maximal response (EC50) amounted to 21.9 nM.
